Data set [1] deals with Mycobacterium leprae. Kind of data set: Anti-leprotic activity against Mycobacterium leprae infected in BALB/c mouse assessed as time delay in bacterial multiplication in footpad at 0.0045 g/100g of diet administered via feed starting 60 or 75 day post infection up to 90 days by Shepard's kinetic method. The format is functional.
Data set [2] deals with Mycobacterium leprae. The data set can be described thus: Anti-leprotic activity against Mycobacterium leprae infected in BALB/c mouse assessed as time delay in bacterial multiplication in footpad at 0.0087 g/100g of diet administered via feed starting 60 or 75 day post infection up to 90 days by Shepard's kinetic method. Format: functional.
In data set [3] the test system is Mycobacterium leprae. The data set can be described thus: Anti-leprotic activity against Mycobacterium leprae infected in BALB/c weanling mouse assessed as bacteria killing at 100 mg/kg, ip administrated for 60 days and measured after 1 year by most probable number technique analysis relative to control. Format: functional.
Data set [4] relates to Mycobacterium leprae. Kind of data set: Anti-leprotic activity against Mycobacterium leprae infected in BALB/c weanling mouse assessed as bacteria killing at 100 mg/kg, ip administrated for 60 days and measured after 1 year by Spearman-Karber technique analysis relative to control. Format: functional.
In data set [5] the test system is Monocyte. Kind of data set: Antiinflammatory activity in human monocytes assessed as inhibition of LPS-induced TNFaplha production at 50 uM preincubated for 15 mins followed by LPS addition and measured after 4 hrs by ELISA relative to control. The format is functional. Background: ELISA stands for enzyme-linked immunosorbent assay.
The nature of data set [6]: Cytotoxicity against LPS-induced human monocytes assessed as cell viability at 50 uM by tryphan blue staining based assay relative to control. The arrangement: species or system Monocyte. The note with it: read-out: Activity.
The test system of data set [7] is Monocyte. The data set can be described thus: Antiinflammatory activity in human monocytes assessed as inhibition of LPS-induced TNFaplha production preincubated for 15 mins followed by LPS addition and measured after 4 hrs by ELISA. Format: functional, cell-based.
Data set [8] deals with Mycobacterium tuberculosis. Kind of data set: Antitubercular activity against Mycobacterium tuberculosis H37Rv ATCC 27294 assessed as growth inhibition at 6.25 ug/ml by microplate alamar blue assay relative to control. The format is functional. (Resazurin is reduced to fluorescent resorufin, in cell work by metabolically active cells.)
Data set [9] is described as follows: Selectivity index, ratio of IC50 for African green monkey Vero cells to MIC for antitubercular activity against Mycobacterium tuberculosis H37Rv. Format: toxicity. To be noted: Vero cells, read-out: Selectivity Index.
Data set [10] concerns Mycobacterium tuberculosis. The data set can be described thus: Antitubercular activity against Mycobacterium tuberculosis H37Rv ATCC 27294 assessed as inhibition of [3H]-thymidine incorporation at 1 ug/ml relative to control. The format is functional. Background: Dividing cells build labelled thymidine or BrdU into new DNA.

Molecules are shown by their SMILES. pIC50: −log10 of the molar value.

In the case of `Nc1ccc([S+]([O-])c2ccc(N)cc2)cc1`, the Time in data set [1] worked out at 90 days.

With `Nc1ccc(Sc2ccc(N)cc2)cc1` [4,4'-THIODIANILINE], the Time in data set [2] turned out to be 68 days.

For the compound `NC[C@H]1O[C@H](O[C@H]2[C@H](O)[C@@H](O[C@H]3O[C@H](CO)[C@@H](O)[C@H](N)[C@H]3O)[C@H](N)C[C@@H]2N)[C@H](O)[C@@H](O)[C@@H]1O` [KANAMYCIN], the Activity in data set [3] is listed as 99.8%; in [4] it was 99.7%.

A word on the inhibition: it is the share of the control response that was lost under treatment. By pIC50 is commonly meant the IC50 on a negative log10 scale, so that one unit is a factor of ten. On to `CCC1(N2C(=O)c3cccc([N+](=O)[O-])c3C2=O)C(=O)NC(=O)N(c2ccccc2)C1=O` (stereo unspecified), for which the inhibition at 50 µM in [5] is less than 10%. In addition, in data set [6], the viability at 50 µM was found to be 77%. The pIC50 in data set [7] is 2.52. As to `c1ccc(Cn2cnc3c(-c4cccs4)ncnc32)cc1`, the inhibition at 6.25 µg/mL in [8] was more than 90%. In data set [9], the selectivity ratio is more than 1.6. Moreover, the inhibition at 1 µg/mL in data set [10] is less than 10%. Regarding `c1ccc(Cn2cnc3c(-c4ccccc4)ncnc32)cc1`, in data set [10], the inhibition at 1 µg/mL is less than 10%.

The values are drawn from ChEMBL document CHEMBL4613212, “Insights of synthetic analogues of anti-leprosy agents” (Bioorg Med Chem, 2019).
